Laboratory results: patent US8263606B2 (Xenon Pharmaceuticals Inc., priority 2008, dated 2012)

Experiments:
sodium channel = assay: Guanidine influx assay (14C-guanidine radiotracer flux, in vitro); type: cell-based, human or rat; settings: guanidine influx assay using a known cell line that expresses a sodium channel
In short: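 Test agents at half-step dilutions around 1 μM are added to plated cells in low-sodium HEPES buffer, then an aconitine/14C-guanidine mixture; after ambient-temperature incubation, cells are washed and counted. IC50 comes from a sigmoidal fit.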

CYP3A4 = CYP3A4 (Homo sapiens, UniProt P08684); assay: Cytochrome P450 (CYP450) Inhibition Assay, CYP3A4 (Vivid fluorescence, BOMCC substrate); settings: human, P450 Baculosomes (recombinant CYP3A4), probe BOMCC (Vivid substrate)
Chain of CYP3A4 (P08684 whole entry): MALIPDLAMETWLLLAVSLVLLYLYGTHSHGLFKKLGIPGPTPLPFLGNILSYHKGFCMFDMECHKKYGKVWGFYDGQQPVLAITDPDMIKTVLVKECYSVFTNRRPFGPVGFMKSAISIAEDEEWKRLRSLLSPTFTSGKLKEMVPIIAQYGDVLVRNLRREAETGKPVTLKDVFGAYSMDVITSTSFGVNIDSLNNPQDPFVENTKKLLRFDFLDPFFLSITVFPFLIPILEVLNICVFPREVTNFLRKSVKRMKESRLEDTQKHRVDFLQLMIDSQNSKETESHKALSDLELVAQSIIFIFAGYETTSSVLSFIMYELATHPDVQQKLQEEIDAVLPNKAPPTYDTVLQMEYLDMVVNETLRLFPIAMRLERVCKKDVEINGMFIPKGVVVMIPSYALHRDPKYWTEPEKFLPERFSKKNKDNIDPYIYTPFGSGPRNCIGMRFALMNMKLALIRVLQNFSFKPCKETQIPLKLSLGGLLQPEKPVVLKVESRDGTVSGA

CNC(=O)c1cc(CN2C(=O)C3(COc4cc5c(cc43)OCO5)c3ccccc32)oc1C(F)(F)F (stereo not drawn) [Example 12.57, N-methyl-5-[(2′-oxospiro[furo[2,3-f][1,3]benzodioxole-7,3′-indol]-1′(2′H)-yl)methyl]-2-(trifluoromethyl)furan-3-carboxamide]
IC50 (sodium channel): 100 to 1000 nM
melting point: 202 to 203 °C
inhibition at 10 µM (CYP3A4): > 50%

NC(=O)c1cc(CN2C(=O)C3(COc4cc5c(cc43)OCO5)c3ccccc32)oc1C(F)(F)F (stereo not drawn) [Example 12.58, 5-[(2′-oxospiro[furo[2,3-f][1,3]benzodioxole-7,3′-indol]-1′(2′H)-yl)methyl]-2-(trifluoromethyl)furan-3-carboxamide]
IC50 (sodium channel): 1 to 100 nM
melting point: 172 to 174 °C
inhibition at 10 µM (CYP3A4): > 50%

O=C1N(Cc2cccc(C(F)(F)F)c2)c2ccccc2C12COc1cc3c(cc12)OCCO3 (stereo not drawn) [Example 7.1, 1′-[3-(trifluoromethyl)benzyl]-2,3-dihydrospiro[furo[2,3-g][1,4]benzodioxine-8,3′-indol]-2′(1′H)-one]
IC50 (sodium channel; activity level class): 1 to 100 nM
melting point: 131 to 134 °C
inhibition at 10 µM (CYP3A4): < 50%

COC(=O)c1ccc(CN2C(=O)C3(COc4cc5c(cc43)OCCO5)c3ccccc32)o1 (stereo not drawn) [Example 7.2, methyl 5-[(2′-oxo-2,3-dihydrospiro[furo[2,3-g][1,4]benzodioxine-8,3′-indol]-1′(2′H)-yl)methyl]furan-2-carboxylate]
IC50 (sodium channel; activity level class): 1 to 100 nM
melting point: 88 to 92 °C
inhibition at 10 µM (CYP3A4): > 50%

O=C1COc2cc3c(cc21)C1(CO3)C(=O)N(C[C@H]2CCCO2)c2ccccc21 (stereo partly drawn) [Example 11.60, 1′-[(2R)-tetrahydrofuran-2-ylmethyl]spiro[benzo[1,2-b:5,4-b′]difuran-3,3′-indole]-2′,5(1′H,6H)-dione]
IC50 (sodium channel): 100 to 1000 nM
melting point: 142 to 144 °C
inhibition at 10 µM (CYP3A4): < 50%

Cc1noc2cc3c(cc12)C1(CO3)C(=O)N(Cc2ccc(-c3ccno3)cc2)c2ccccc21 (stereo not drawn) [Example 4.99, 1′-(4-isoxazol-5-ylbenzyl)-3-methylspiro[furo[3,2-f][1,2]benzisoxazole-5,3′-indol]-2′(1′H)-one]
IC50 (sodium channel; activity level class): 100 to 1000 nM
melting point: 192 to 194 °C
inhibition at 10 µM (CYP3A4): < 50%

O=C1N(Cc2ncccc2C(F)(F)F)c2ccccc2C12COc1ccc3nonc3c12 (stereo not drawn) [Example 11.107, 1′-{[3-(trifluoromethyl)pyridin-2-yl]methyl}spiro[furo[3,2-e][2,1,3]benzoxadiazole-8,3′-indol]-2′(1′H)-one]
IC50 (sodium channel): 1000 to 10000 nM
melting point: 212 to 215 °C
inhibition at 10 µM (CYP3A4): > 50%

CN1CCOc2cc3c(cc21)OCC31C(=O)N(C[C@H]2CCCO2)c2ccccc21 (stereo partly drawn) [Example 2.30, 4-methyl-1′-[(2R)-tetrahydrofuran-2-ylmethyl]-3,4-dihydro-2H-spiro[furo[2,3-g][1,4]benzoxazine-8,3′-indol]-2′(1′H)-one]
IC50 (sodium channel; activity level class): 1000 to 10000 nM
melting point: 138 to 140 °C
inhibition at 10 µM (CYP3A4): > 50%

Cc1cccc(C)c1NC(=O)c1ccc(CN2C(=O)C3(COc4cc5c(cc43)CCO5)c3ccccc32)cc1 (stereo not drawn) [Example 12.35, N-(2,6-dimethylphenyl)-4-[(2′-oxo-5,6-dihydrospiro[benzo[1,2-b:5,4-b′]difuran-3,3′-indol]-1′(2′H)-yl)methyl]benzamide]
IC50 (sodium channel): 1000 to 10000 nM
melting point: > 250 °C
inhibition at 10 µM (CYP3A4): > 50%

Cc1ccc(C)c(NC(=O)CN2C(=O)C3(COc4cc5c(cc43)CCO5)c3ccccc32)c1 (stereo not drawn) [Example 12.53, N-(2,5-dimethylphenyl)-2-(2′-oxo-5,6-dihydrospiro[benzo[1,2-b:5,4-b′]difuran-3,3′-indol]-1′(2′H)-yl)acetamide]
IC50 (sodium channel): 1000 to 10000 nM
melting point: 250 to 252 °C
inhibition at 10 µM (CYP3A4): < 50%

Cc1cc(CN2C(=O)C3(COc4cc5c(cc43)OCO5)c3ccccc32)c(C)n1C(C)C (stereo not drawn) [Example 1.3, 1′-{[2,5-dimethyl-1-(1-methylethyl)-1H-pyrrol-3-yl]methyl}spiro[furo[2,3-f][1,3]benzodioxole-7,3′-indol]-2′(1′H)-one]
IC50 (sodium channel; activity level class): 1 to 100 nM
melting point: 169 to 171 °C
inhibition at 10 µM (CYP3A4): > 50%

Cc1ccc(F)c2c1N(C[C@H]1CCCO1)C(=O)C21COc2cc3c(cc21)CCO3 (stereo partly drawn) [Example 8.3, 4′-fluoro-7′-methyl-1′-[(2R)-tetrahydrofuran-2-ylmethyl]-5,6-dihydrospiro[benzo[1,2-b:5,4-b′]difuran-3,3′-indol]-2′(1′H)-one]
IC50 (sodium channel; activity level class): 1 to 100 nM
melting point: 175 to 176 °C
inhibition at 10 µM (CYP3A4): > 50%

CC(C)(C)OC(=O)Nc1ccc(CN2C(=O)C3(COc4cc5c(cc43)OCCO5)c3ccccc32)cn1 (stereo not drawn) [Example 9.40, tert-butyl {5-[(2′-oxo-2,3-dihydrospiro[furo[2,3-g][1,4]benzodioxine-8,3′-indol]-1′(2′H)-yl)methyl]pyridin-2-yl}carbamate]
IC50 (sodium channel; activity level class): 100 to 1000 nM
melting point: 238 to 239 °C
inhibition at 10 µM (CYP3A4): < 50%

O=C1N(Cc2ccc(O)cc2)c2ccccc2C12COc1cc3c(cc12)OCCO3 (stereo not drawn) [Example 17.1, 1′-(4-hydroxybenzyl)-2,3-dihydrospiro[furo[2,3-g][1,4]benzodioxine-8,3′-indol]-2′(1′H)-one]
IC50 (sodium channel): 1 to 100 nM
melting point: 243 to 244 °C
inhibition at 10 µM (CYP3A4): > 50%

O=C1N(Cc2ccc(F)cn2)c2ccccc2[C@]12COc1cc3c(cc12)OCCO3 [Example 4.107, (8S)-1′-[(5-fluoropyridin-2-yl)methyl]-2,3-dihydrospiro[furo[2,3-g][1,4]benzodioxine-8,3′-indol]-2′(1′H)-one]
IC50 (sodium channel; activity level class): 1 to 100 nM
melting point: 210 to 212 °C
inhibition at 10 µM (CYP3A4): < 50%

Cc1nc(CN2C(=O)C3(COc4cc5c(cc43)OCO5)c3ccccc32)c(C(F)(F)F)o1 (stereo not drawn) [Example 1.9, 1′-{[2-methyl-5-(trifluoromethyl)-1,3-oxazol-4-yl]methyl}spiro[furo[2,3-f][1,3]benzodioxole-7,3′-indol]-2′(1′H)-one]
IC50 (sodium channel; activity level class): 1 to 100 nM
melting point: 136 to 137 °C
inhibition at 10 µM (CYP3A4): > 50%

N#Cc1ccc(CN2C(=O)C3(COc4cc5c(cc43)CCO5)c3ccccc32)cc1 (stereo not drawn) [Example 4.23, 4-((2′-oxo-5,6-dihydro-2H-spiro[benzofuro[6,5-b]furan-3,3′-indoline]-1′-yl)methyl)benzonitrile]
IC50 (sodium channel; activity level class): 1 to 100 nM
melting point: 69 to 71 °C
inhibition at 10 µM (CYP3A4): < 50%

COc1ccc(CN2C(=O)C3(COc4cc5c(C)noc5cc43)c3ccccc32)cc1 (stereo not drawn) [Example 2.41, 1′-(4-methoxybenzyl)-3-methylspiro[furo[2,3-f][1,2]benzisoxazole-7,3′-indol]-2′(1′H)-one]
IC50 (sodium channel; activity level class): 1000 to 10000 nM
melting point: 183 to 184 °C
inhibition at 10 µM (CYP3A4): > 50%

Cc1c(F)cccc1NC(=O)c1ccccc1CN1C(=O)C2(COc3cc4c(cc32)CCO4)c2ccccc21 (stereo not drawn) [Example 12.14, N-(3-fluoro-2-methylphenyl)-2-[(2′-oxo-5,6-dihydrospiro[benzo[1,2-b:5,4-b′]difuran-3,3′-indol]-1′(2′H)-yl)methyl]benzamide]
IC50 (sodium channel): 100 to 1000 nM
melting point: > 230 °C
inhibition at 10 µM (CYP3A4): > 50%

NC(=O)c1ccc2c(c1)C1(COc3cc4c(cc31)OCCO4)C(=O)N2Cc1ccccn1 (stereo not drawn) [Example 31, 2′-oxo-1′-(pyridin-2-ylmethyl)-1′,2,2′,3-tetrahydrospiro[furo[2,3-g][1,4]benzodioxine-8,3′-indole]-5′-carboxamide]
IC50 (sodium channel): 100 to 1000 nM
melting point: 220 to 222 °C
inhibition at 10 µM (CYP3A4): < 50%

C[C@@H](CN1C(=O)C2(COc3cc4c(cc32)CCO4)c2ccccc21)OCc1ccccc1 (stereo partly drawn) [Example 14.1, 1′-[(2S)-2-(benzyloxy)propyl]-5,6-dihydrospiro[benzo[1,2-b:5,4-b′]difuran-3,3′-indol]-2′(1′H)-one]
IC50 (sodium channel): 100 to 1000 nM
melting point: 45 to 47 °C
inhibition at 10 µM (CYP3A4): > 50%

O=C1N(Cc2ccccn2)c2ccc3ncsc3c2C12COc1cc3c(cc12)OCCO3 (stereo not drawn) [Example 9.72, 6′-(pyridin-2-ylmethyl)-2,3-dihydrospiro[furo[2,3-g][1,4]-benzodioxine-8,8′-[1,3]thiazolo[5,4-e]indol]-7′(6′H)-one]
IC50 (sodium channel): 100 to 1000 nM
melting point: 156 to 158 °C
inhibition at 10 µM (CYP3A4): > 50%

COCCOCCN1C(=O)C2(COc3cc4c(cc32)OCCO4)c2c(OC)ccc(OC)c21 (stereo not drawn) [Example 2.64, 4′,7′-dimethoxy-1′-[2-(2-methoxyethoxy)ethyl]-2,3-dihydrospiro[furo[2,3-g][1,4]benzodioxine-8,3′-indol]-2′(1′H)-one]
IC50 (sodium channel; activity level class): 100 to 1000 nM
melting point: 109 to 110 °C
inhibition at 10 µM (CYP3A4): < 50%

O=C1N(C[C@H]2CCCO2)c2cccc(Cl)c2C12COc1cc3c(cc12)CCO3 (stereo partly drawn) [Example 4.34, 4′-chloro-1′-[(2R)-tetrahydrofuran-2-ylmethyl]-5,6-dihydrospiro[benzo[1,2-b:5,4-b′]difuran-3,3′-indol]-2′(1′H)-one]
IC50 (sodium channel; activity level class): 1 to 100 nM
melting point: 78 to 82 °C
inhibition at 10 µM (CYP3A4): < 50%

Cn1nc(C(F)(F)F)c(CN2C(=O)C3(COc4cc5c(cc43)OCO5)c3ccccc32)c1Cl (stereo not drawn) [Example 1.16, 1′-{[5-chloro-1-methyl-3-(trifluoromethyl)-1H-pyrazol-4-yl]methyl}spiro[furo[2,3-f][1,3]benzodioxole-7,3′-indol]-2′(1′H)-one]
IC50 (sodium channel; activity level class): 1 to 100 nM
melting point: 180 to 182 °C
inhibition at 10 µM (CYP3A4): > 50%

N#Cc1ccc2c(c1)OCC21C(=O)N(Cc2ccccn2)c2ccccc21 (stereo not drawn) [Example 4.105, 2′-oxo-1′-(pyridin-2-ylmethyl)-1′,2′-dihydrospiro[1-benzofuran-3,3′-indole]-6-carbonitrile]
IC50 (sodium channel; activity level class): 1000 to 10000 nM
melting point: 151 to 153 °C
inhibition at 10 µM (CYP3A4): < 50%
